The values that follow come from US10150729B2, “Tranilast compositions and cocrystals” (NUFORMIX LIMITED, priority 2012, dated 2018).

Where two headings read alike, the source gives them in different places.

A short description of series [1]: Solid-state photostability study (UV irradiation, HPLC). The following applies: UV light; for photostability in the solid-state: compared to pure crystalline tranilast.
Method: A study was, therefore, carried out to determine the solid-state photostability of the 1:1 tranilast nicotinamide cocrystal, the 1:1 tranilast saccharin cocrystal, the 1:1 tranilast gentisic acid cocrystal, the 1:1 salicylic acid cocrystal, the 1:1 tranilast urea cocrystal, the 1:1 tranilast 4-aminobenzoic acid cocrystal and the 1:1 tranilast 2,4-dihydroxybenzoic acid cocrystal and to compare this with the solid state photostability of pure crystalline tranilast. A 1-2 mg sample of crystalline tranilast and the seven cocrystal forms were each weighed and spread over the bottom surface of a clear glass vial. The vials were placed into a Vindon Scientific Photostability cabinet and irradiated with UV light (average Klux=18.2 (18.2 Lux/hour), average UV values=2.55 watts/minute, temperature=31.0-32.0° C.). The percentage of tranilast remaining in each sample, that had not undergone degradation into the cis-isomer, dimer or any other degradation product, was determined at 3, 24 and 48 hours using HPLC.
A short description of series [2]: Solution photostability study (UV irradiation, HPLC). To be noted: dissolved in DMSO/MeOH/water; UV light; 24 hrs.
Method: (§1) This study explored the photostability of the 1:1 tranilast nicotinamide cocrystal, the 1:1 tranilast saccharin cocrystal, the 1:1 tranilast gentisic acid cocrystal, the 1:1 salicylic acid cocrystal, the 1:1 tranilast urea cocrystal, the 1:1 tranilast 4-aminobenzoic acid cocrystal and the 1:1 tranilast 2,4-dihydroxybenzoic acid cocrystal once dissolved in solution and to compare these with the solution photostability of pure tranilast. A 1 mg sample of crystalline tranilast and the seven cocrystal forms were each weighed into a clear glass vial. Each sample was dissolved in a mixture of DMSO (200 μl), MeOH (600 μl) and water (600 μl). The vials were placed into a Vindon Scientific Photostability cabinet and irradiated with UV light (average Klux=18.2 (18.2 Lux/hour), average UV values=2.55 watts/minute, temperature=31.0-32.0° C.). The percentage of tranilast remaining in each sample, that had not undergone degradation into the cis-isomer, dimer or any other degradation product, was determined after 24 hours using HPLC.
The conditions of series [3]: buffer, 24 h.
Method: as §1
Series [4] in a line: Physical stability study of the cocrystal under accelerated conditions (40° C./75% RH), examined by XRPD. Type of series: physicochemical. The method, then:
X-Ray Powder Diffraction patterns at the required time points were collected on a PANalytical diffractometer using Cu Kα radiation (45 kV, 40 mA), θ-θ goniometer, focusing mirror, divergence slit (½″), soller slits at both incident and divergent beam (4 mm) and a PIXcel detector. The software used for data collection was X'Pert Data Collector, version 2.2f and the data was presented using X'Pert Data Viewer, version 1.2d. Instrument verification was performed using a silicon and benzoic acid standard, performed with the same batch program as listed below for sample analysis. Samples were run under ambient conditions and were analysed by transmission foil XRPD, using the powder as received. Approximately 2-5 mg of the sample was mounted on a 96 position sample plate supported on a polyimide (Kapton, 12.7 μm thickness) film. Plate height (Z) was set to 9 mm. Data was collected in the range 3-40° 2θ with a continuous scan (speed of 0.2° 2θ/s).
A stability study was carried out to examine the physical stability of the 1:1 tranilast nicotinamide cocrystal with respect to dissociation into its starting components over time under accelerated conditions. Approximately 1-2 mg of the 1:1 tranilast nicotinamide cocrystal was placed in seven clear glass vials. The glass vials were loosely sealed with plastic screw caps so as to provide a barrier to solid transfer but to still allow moisture equilibration with the outer environment. The vial head space above the sample was estimated to be >95% of the total vial volume. All seven samples were then placed on a tray and stored within a stability cabinet set at 40° C./75% RH. At every time point examined the XRPD pattern obtained was characteristic of the 1:1 tranilast nicotinamide cocrystal with no evidence of either of the starting materials, or any new peaks to indicate conversion to a different crystalline form. FIG. 7 illustrates the XRPD patterns obtained at the time points 0, three months and six months. FIG. 7 is an overlay of the XRPD patterns of the 1:1 tranilast nicotinamide cocrystal at those time points during a 6 month accelerated stability study at 40° C./75% RH.

Series [5] can be described thus: Dissolution study in purified water containing 2% SDS. Type of series: physicochemical. The protocol:
For poorly soluble drugs, such as tranilast, the rate of dissolution of the drug form used can have an impact on the overall absorption and thus bioavailability of the drug, especially for example, in the case of oral solid dosage or inhalation delivery methods. […] The dissolution experiment was carried out for tranilast and each of the cocrystal forms at a concentration equivalent to 0.4 mg tranilast/ml in purified water containing 2% SDS. This study compared the dissolution rates of the cocrystals versus pure crystalline tranilast, because of the extremely low solubility of crystalline tranilast in aqueous media, the surfactant sodium dodecyl sulfate (SDS) was added to the dissolution media to allow easier analytical detection. Samples were collected and analysed at 1, 5, 10 and 30 minute time points. The samples were analysed by HPLC using the method described in Table 10. FIG. 32 illustrates the dissolution profiles from a single dataset for each of the tranilast cocrystals alongside crystalline tranilast over the 30 minute time period in the aqueous 2% SDS solution. The dissolution data is corrected within error limits of the analytical method described (estimated at ±10%). […] Most of the cocrystals reach almost their maximum dissolution within the first minute.

With `COc1ccc(/C=C/C(=O)Nc2ccccc2C(=O)O)cc1OC.Nc1ccc(C(=O)O)cc1`, the “percentage of tranilast remaining” value in series [1] (3 hrs) came out at 99.8%; in series [1] (24 hrs) it was 98.2%; in series [1] (48 hrs), 99.7%; in series [2], 76.2%. Also, the “photostability in the solid-state” value in series [1] is “comparable photostability”.
Turning to `COc1ccc(/C=C/C(=O)Nc2ccccc2C(=O)O)cc1OC.O=C(O)c1cc(O)ccc1O` [1:1 Tranilast Gentisic Acid Cocrystal], the “percentage of tranilast remaining” value (3 h) amounted to 99.6%, the “percentage of tranilast remaining” value (24 h) is given as 99.8%, the “percentage of tranilast remaining” value (48 h) is recorded as 99.9% and the “percentage of tranilast remaining” value in series [3] is recorded as 76.3%.
Regarding `COc1ccc(/C=C/C(=O)Nc2ccccc2C(=O)O)cc1OC.NC(=O)c1cccnc1` [1:1 Tranilast Nicotinamide Cocrystal], the “percentage of tranilast remaining” value in series [1] (3 hrs) is reported as 99.3%; in series [1] (24 hrs) it was 99.9%; in series [1] (48 hrs) it was 99.9%; in series [2] it was 80.2%. The “photostability in the solid-state” value in series [1] was “comparable photostability”. Further, the “XRPD Characterization” value in series [4] (1 month), in series [4] (1 week), in series [4] (2 months), in series [4] (2 week), in series [4] (3 months) and in series [4] (3 week) was “cocrystal” each time. Also, the “XRPD Characterization” value in series [4] (6 months) and in series [4] (time point 0) was “cocrystal” throughout. The “physical stability with respect to dissociation or conversion to another crystalline form” value in series [4] (six month period) was “stable”. Further, the dissolution reached result in series [5] (within 1 minute) is “almost complete dissolution”.
For the compound `COc1ccc(/C=C/C(=O)Nc2ccccc2C(=O)O)cc1OC.O=C1NS(=O)(=O)c2ccccc21` [1:1 Tranilast Saccharin Cocrystal], the “percentage of tranilast remaining” value was 99.8% in series [1] (3 hrs), 99.6% in series [1] (24 hrs), 99.1% in series [1] (48 hrs) and 71.0% in series [2]. In series [1], the “photostability in the solid-state” value is given as “comparable photostability”.
For `COc1ccc(/C=C/C(=O)Nc2ccccc2C(=O)O)cc1OC.O=C(O)c1ccccc1O` [1:1 Tranilast Salicyclic Acid Cocrystal] the same measures were 99.8%, 99.6%, 98.7%, 77.5% and “comparable photostability”.
For `COc1ccc(/C=C/C(=O)Nc2ccccc2C(=O)O)cc1OC.NC(N)=O` [1:1 Tranilast Urea Cocrystal], in that order: 99.8%, 99.6%, 99.9%, 76.4% and “comparable photostability”.
As to `COc1ccc(/C=C/C(=O)Nc2ccccc2C(=O)O)cc1OC` [Crystalline Tranilast, 2-[[3-(3,4-dimethoxyphenyl)-1-oxo-2-propenyl]amino] benzoic acid, reference compound], the “percentage of tranilast remaining” value stood at 98.9% in series [1] (3 hrs), 99.8% in series [1] (24 hrs), 99.7% in series [1] (48 hrs) and 66.2% in series [2]. Also, the dissolved result in series [5] (after 1 minute, 0.4 mg tranilast/ml) was “about 5%”.
